Measurements: patent US20030181436A1, “Treatment for AIDS, HIV, and other related diseases and compounds for use therewith” (priority 2001, published 2003)
≈ marks a conversion by molar mass, not a printed value. Where two headings read alike, the source gives them in different places.

Legend:
Format in all cases: cell-based
HIV = assay: PBMC time of addition assay; conditions: addition after 32 h of infection
Excerpt: FIGS. 18 and 19 show the results of the time of addition assay with the K and Z compound. In time of addition assays the timed addition of compounds after initial infection allows the identification of specific stages of virus replication. This is seen with the positive control compound AZT. AZT is a reverse transcriptase inhibitor. […] Thus it has an antiviral target that is occurring after completion of reverse transcription. […] In general since this time of addition uses multiple rounds of infection in the PBMCs versus a single round in cell lines systems, lower concentrations of compound will often shift the curve to the left. This is seen in FIG. 18.

[1] = test system: HIV RoJo (a clinical isolate); assay: Chronically infected PBMCs, supernatant reverse transcriptase activity; conditions: 7 day treatment
Method: Reverse transcriptase activity was measured in cell-free supernatants. Tritiated thymidine triphosphate (NEN) (TTP) was resuspended in distilled H2O at 5 Ci/mL. Poly rA and oligo dT were prepared as a stock solution which was kept at −20° C. The RT reaction buffer was prepared fresh on a daily basis and consists of 125 μL 1.0 M EGTA, 125 μL dH2O, 110 μL 10% SDS, 50 μL 1.0 M Tris (pH 7.4), 50 μL, 1.0 M DTT, and 40 μL 1.0 M MgCl2. These three solutions were mixed together in a ratio of 2 parts TTP, 1 part poly rA:oligo dT, and 1 part reaction buffer. Ten microliters of this reaction mixture was placed in a round bottom microtiter plate and 15 μL of virus containing supernatant was added and mixed. The plate was incubated at 37° C. in a water bath with a solid support to prevent submersion of the plate and incubated for 60 minutes. Following reaction, the reaction volume was spotted onto pieces of DE81 paper, washed 5 times for 5 minutes each in a 5% sodium phosphate buffer, 2 times for 1 minute each in distilled water, 2 times for 1 minute each in 70% ethanol, and then dried. Opti-Fluor O was added to each sample and incorporated radioactivity was quantitated utilizing a Wallac 1450 Microbetaplus liquid scintillation counter.
In these studies PBMCs are infected with HIV RoJo (a clinical isolate) and a dynamic population of infected PBMCs established over a period of 2 to 3 weeks. This population of infected PBMCs was established and maintained by the addition of fresh PBMCs in a 1:1 ratio every 7 days, thus overcoming the lost of PBMCs to normal cell death processes. Thus a population of cells was established that consisted of uninfected cells, short lived infected cells and long lived infected cells. In experiments where AZT was added to prevent re-infection of the population, we typically saw a 50% reduction in infection following a 7 day treatment. This means that 50% of the virus production from the infected […] population was due re-infection. […] Thus there was a population of infected PBMCs present ([…] of the total) which survived for extended periods of time and thus met the definition of being chronically infected.

HeLa CD4 LTR B-gal cells = assay: Attachment assay, toxicity on sister plates by MTS; conditions: for TC50: attachment assay
Method: (§1) The attachment assay was performed with the HeLa CD4 LTR B-gal cells available from the AIDS Research and Reference Reagent Repository. […] HeLa CD4 LTR B-gal cells express cell surface CD4 and contain an LTR B-galactosidase reporter construct. Upon infection either the Tat protein incorporated into the virion or new Tat produced following virus integration and transcription trans-activate the LTR B-gal reporter, leading to expression of the B-galactosidase enzyme. HeLa CD4 LTR B-gal cells are routinely cultured with the required selection antibiotics and scrended for mycoplasma contamination. Twenty-four h prior to initiation of the assay cells were trypsinized, counted and 1×10^4 cells placed in a 0.2 cm well in media without selection antibiotics. Media was removed and compound media placed on the cells and incubated for 15 to 30 min at 37° C. A known titer of virus was then added to the wells and the incubation continued for 1 h. At the end of the incubation the wells were washed 6 times with media and the culture continued for 48 h. At 48 h the wells were washed one time with PBS and B-galactosidase enzyme expression determined by chemiluminescence per manufacturers instructions (Tropix Gal-screen TM, Tropix, Bedford, Mass.). Compound toxicity was monitored on sister plates using MTS dye reduction.

[2] = test system: HIV-1 attachment to HeLa CD4 LTR B-gal cells; assay: Inhibition of attachment assay; conditions: for IC50: attachment assay
Method: as §1, with “reduction. (See Tables 14 through 16 and FIGS. 21 and 22).” for “reduction.”

HeLa CD4 LTR β-gal cells = assay: Cytotoxicity for HeLa CD4 LTR β-gal cells
Method: At assay termination the assay plates were stained with the soluble tetrazolium-based dye MTS (CellTiter® Reagent, Promega) to determined cell viability and quantify compound toxicity. […] At termination of the assay 20 μL of MTS reagent was added per well. The wells were incubated for 4 h at 37° C., 5% CO2. Adhesive plate scalers were used in place of the lids, the sealed plate was inverted several times to mix the soluble formazan product and the plate was read spectrophotometrically at 490 nm with a 650 nm reference wavelength on a Molecular Devices Vmax plate reader.
This cell line represents one of 3 standard models for performing time of addition assays.

`Cc1cn([C@H]2C[C@H](N=[N+]=[N-])[C@@H](CO)O2)c(=O)[nH]c1=O` [AZT, reference compound] was tested, and the “effect on virus replication” value (HIV) was “no significant effect” and the reduction in infection [1] was 50%.

In the case of `COc1cc(-c2ccc(/N=N/c3ccc4c(S(=O)(=O)O)cc(S(=O)(=O)O)c(N)c4c3O)c(OC)c2)ccc1/N=N/c1ccc2c(S(=O)(=O)O)cc(S(=O)(=O)O)c(N)c2c1O` [Chicago Sky Blue], the “% CC” value (HeLa CD4 LTR B-gal cells; CONC 0.032) is reported as 93.3%, the “TOXICITY VALUES (Cell Titer) MEAN” value (HeLa CD4 LTR B-gal cells; CONC 0.032) is reported as 1.259 O. D and the “% CC” value (HeLa CD4 LTR B-gal cells; CONC 0.1) is reported as 80.8%. The “TOXICITY VALUES (Cell Titer) MEAN” value (HeLa CD4 LTR B-gal cells; CONC 0.1) was 1.090 O. D, the “% CC” value (HeLa CD4 LTR B-gal cells; CONC 0.32) was 84.7% and the “TOXICITY VALUES (Cell Titer) MEAN” value (HeLa CD4 LTR B-gal cells; CONC 0.32) was 1.142 O. D. For the same compound, the “% CC” value (HeLa CD4 LTR B-gal cells; CONC 1) was 82.6%, the “TOXICITY VALUES (Cell Titer) MEAN” value (HeLa CD4 LTR B-gal cells; CONC 1) was 1.115 O. D and the “% CC” value (HeLa CD4 LTR B-gal cells; CONC 3.2) was 83.3%. For the same compound, the “TOXICITY VALUES (Cell Titer) MEAN” value (HeLa CD4 LTR B-gal cells; CONC 3.2) was 1.123 O. D, the “% CC” value (HeLa CD4 LTR B-gal cells; CONC 10) was 73.3% and the “TOXICITY VALUES (Cell Titer) MEAN” value (HeLa CD4 LTR B-gal cells; CONC 10) was 0.989 O. D. The TC50 (HeLa CD4 LTR B-gal cells) was >10 µg/mL, the TC50 (HeLa CD4 LTR B-gal cells; listed as CHICAGO SKY BLUE) was “TC50 (μG/mL) = >.10 μg/mL” and the “% VC” value ([2]; CONC 0.032) was 90.6%. For the same compound, the “RLU (Relative Light Units) MEAN” value ([2]; CONC 0.032) was 127754.7 RLU, the “% VC” value ([2]; CONC 0.1) was 74.5% and the “RLU (Relative Light Units) MEAN” value ([2]; CONC 0.1) was 105105.3 RLU. For the same compound, the “% VC” value ([2]; CONC 0.32) was 48.2%, the “RLU (Relative Light Units) MEAN” value ([2]; CONC 0.32) was 67955.7 RLU and the “% VC” value ([2]; CONC 1) was 10.9%. The “RLU (Relative Light Units) MEAN” value ([2]; CONC 1) was 15363.3 RLU, the “% VC” value ([2]; CONC 3.2) was 8.3% and the “RLU (Relative Light Units) MEAN” value ([2]; CONC 3.2) was 11753.3 RLU. The “% VC” value ([2]; CONC 10) was 8.0%, the “RLU (Relative Light Units) MEAN” value ([2]; CONC 10) was 11266.7 RLU and the IC50 ([2]; Human immunodeficiency virus 1, HeLa, read-out: IC50) was 0.3 µg/mL (≈ 0.332 µM). For the same compound, the IC50 ([2]; listed as CHICAGO SKY BLUE) was “IC50 (μG/mL) = 0.30 μg/mL”.

In the case of `C[S+](C)[O-]` [DMSO], the “% CC” value (HeLa CD4 LTR β-gal cells; dilution 1:50) is reported as 111.0%, the “TOXICITY VALUES (Cell Titer) MEAN” value (HeLa CD4 LTR β-gal cells; dilution 1:50) is reported as 1.167 O. D and the “% CC” value (HeLa CD4 LTR β-gal cells; dilution 1:1600) is reported as 103.2%. For the same compound, the “TOXICITY VALUES (Cell Titer) MEAN” value (HeLa CD4 LTR β-gal cells; dilution 1:1600) was 1.085 O. D, the “% CC” value (HeLa CD4 LTR β-gal cells; dilution 1:5000) was 105.9% and the “TOXICITY VALUES (Cell Titer) MEAN” value (HeLa CD4 LTR β-gal cells; dilution 1:5000) was 1.113 O. D. For the same compound, the “% CC” value (HeLa CD4 LTR β-gal cells; dilution 1:16000) was 99.1%, the “TOXICITY VALUES (Cell Titer) MEAN” value (HeLa CD4 LTR β-gal cells; dilution 1:16000) was 1.042 O. D and the “% CC” value (HeLa CD4 LTR β-gal cells; dilution 1.500) was 101.0%. The “TOXICITY VALUES (Cell Titer) MEAN” value (HeLa CD4 LTR β-gal cells; dilution 1.500) was 1.062 O. D, the “% CC” value (HeLa CD4 LTR β-gal cells; dilution 11110) was 111.0% and the “TOXICITY VALUES (Cell Titer) MEAN” value (HeLa CD4 LTR β-gal cells; dilution 11110) was 1.167 O. D.
